Where two headings read alike, the source gives them in different places.
How the values were obtained:
Influenza A H1N1 = test: microbe, parasite or virus in culture; type: cell-based, influenza A virus; conditions: Influenza A virus, H1N1, MDCK
Human Norovirus = test: microbe, parasite or virus in culture; type: cell-based; conditions: HG23
Poliovirus = test: microbe, parasite or virus in culture; type: cell-based; conditions: Vero 76 cells
[1] = CD-1, mouse, microsomes
[2] = female, ICR (CD-1), mouse, in vivo
Huh-7 cells = conditions: human
HRV-14 = test: microbe, parasite or virus in culture; type: cell-based, human rhinovirus
Vero E6 cells = conditions: African green monkey
HG23 cells = test: Cytotoxicity (CC50) run with the norovirus assay
Enterovirus-68 = test: microbe, parasite or virus in culture; type: cell-based, EV-D68

With O=c1ccn([C@@H]2O[C@](F)(CO)[C@@H](O)[C@H]2O)c(=O)[nH]1 [EIDD-2749, 4′-fluorouridine] as the compound, how does the EC50 (Influenza A H1N1) read?
The EC50 was under 380 nM.

What about the EC50 (Human Norovirus) of the same compound?
Its EC50 is 2700 nM.

And the EC90 (Human Norovirus)?
The EC90 was 9.3 µM.

And the EC50 (Poliovirus; Enterovirus C, Vero 76, Poliovirus strain Mahoney)?
The EC50 was 12.2 µM.

What about the EC50 (Poliovirus; Poliovirus strain Mahoney) of the same compound?
Its EC50 is 11.8 µM.

And the half-life [1]?
The half-life was 27 min.

What about the AUC-INF ([2]; ip, 10 mg/kg) of the same compound?
The AUC-INF was 19.6 nmol·h/mL.

And the Cmax ([2]; ip, 10 mg/kg)?
The Cmax was 7.7 ± 2.3 µM.

What about the t1/2 ([2]; ip, 10 mg/kg) of the same compound?
The t1/2 was 6.3 h.

What about the AUC-INF ([2]; po, 50 mg/kg) of the same compound?
Its AUC-INF is 232.3 nmol·h/mL.

And the Bioavailability ([2]; po, 50 mg/kg)?
Its Bioavailability is 236%.

And the Cmax ([2]; po, 50 mg/kg)?
Its Cmax is 35.2 ± 9.7 µM.

And the t1/2 ([2]; po, 50 mg/kg)?
The t1/2 was 8.3 h.

What about the AUC-INF ([2]; po, 150 mg/kg) of the same compound?
The AUC-INF was 392.3 nmol·h/mL.

What about the Bioavailability ([2]; po, 150 mg/kg) of the same compound?
Its Bioavailability is 133%.

What about the Cmax ([2]; po, 150 mg/kg) of the same compound?
The Cmax was 43.6 ± 2.8 µM.

What about the t1/2 ([2]; po, 150 mg/kg) of the same compound?
Its t1/2 is 8.5 h.

And the AUC-INF ([2]; po, 500 mg/kg)?
Its AUC-INF is 755.2 nmol·h/mL.

And the Bioavailability ([2]; po, 500 mg/kg)?
Its Bioavailability is 77.0%.

And the Cmax ([2]; po, 500 mg/kg)?
The Cmax was 76 ± 15.3 µM.

And the t1/2 ([2]; po, 500 mg/kg)?
The t1/2 was 12.9 h.

And the CC50 (Huh-7 cells)?
Its CC50 is over 380 µM.

What about the EC50 (HRV-14) of the same compound?
Its EC50 is 1140 nM.

And the EC50 (HRV-14; Rhinovirus B, HRV14)?
Its EC50 is 1220 nM.

And the CC50 (Vero E6 cells)?
Its CC50 is over 380 µM.

And the CC50 (HG23 cells)?
The CC50 was 100 µM.

What about the EC50 (Enterovirus-68) of the same compound?
The EC50 was 11.8 µM.

And the EC50 (Enterovirus-68; Enterovirus D, RD)?
The EC50 was 13.7 µM.

Source: patent US20260124226A1 (priority 2023, published 2026)
